Reference: patent US20180140679A1, “MODULATION OF AXL RECEPTOR ACTIVITY IN COMBINATION WITH CYTOREDUCTIVE THERAPY” (THE BOARD OF TRUSTEES OF THE LELAND STANFORD JUNIOR …, priority 2016, published 2018)
Changes are numbered by the printed parent chain. Names and notes keep the numbering of the source.

Assays:
4T1 luciferase cells = format: in vivo; conditions: MYD1-72 Fc 1 mg/kg daily, TKIs 12.5 mg/kg twice daily; for reduction in lung metastases compared to vehicle treated mice: ex vivo bioluminescent imaging; for size of primary tumors: three weeks, vs control
Text: In this model, cells orthotopically implanted in the mammary fat pad generate primary masses that metastasize to the lungs.
Comparison of MYD1-72 Fc with clinical Axl. TKIs There are currently no FDA approved drugs targeting Axl, though several small molecule kinase inhibitors are undergoing clinical trials. BerGenBio's BGB324 (previously Rigel's R428) is the most advanced of these compounds, and the first to be developed prospectively as an Axl inhibitor. […] Furthermore, since TKI's and biologics are fundamentally very different, as are their mechanisms of action, a direct comparison would provide valuable insights into the potential of distinct therapeutic intervention strategies. […] Cells were implanted orthotopically in the mammary fat pad, and primary tumors were allowed to establish prior to treatment. […] This dose for the TKIs was chosen as significant activity has been previously reported at equivalent concentrations.
(§1) Treatment was initiated four days post-surgery.

[1] = system: phosphorylation of Axl, Mer, Tyro3, and downstream Akt signaling in OVCAR8 cells; assay: Western blot of TAM receptor and Akt phosphorylation in OVCAR8 cells; format: cell-based, human
Text: (§2) Cell lysates subjected to sodium dodecyl sulfate polyacrylamide gel electrophoresis followed by transfer to nitrocellulose membrane. The membranes were then probed with primary antibodies against total Axl (AF154, R&D Systems, INC., Minneapolis, Minn.), phospho-Axl (T702; #5724, CST, Danvers, Mass.), total Akt (#4691 CST, Danvers, Mass.), phosphor-Akt (#4060, CST, Danvers, Mass.), anti-MERTK (#ab52968, Abcam, Cambridge, Mass.), phospho-MERTK (#ab14921 Abcam, Cambridge, Mass.), anti-Tyro3 (#5585, CST, Danvers, Mass.), phospho-Tyro3 (#orb186274, Biorbyt LLC, Berkely, Calif.), Bcl-2 Family Antibody Sampler Kit (#9934, CST, Danvers, Mass.), anti-Chk2 (#sc-5278, Santa Cruz Biotech, INC., Santa Cruz, Calif.), anti-XRCC1 (#2735, CST, Danvers, Mass.), anti-γH2AX (Merck Millipore #05636, Darmstadt, Germany), anti-phospho-ATM (#ab81292, Abcam, Cambridge, Mass.), anti-ATM (#ab78, Abcam, Cambridge, Mass.), anti phospho-ATR (#2853, CST, Danvers, Mass.), anti-ATR (#2790, CST, Danvers, Mass.), anti-Phospho Chk1 (#12302, CST, Danvers, Mass.), anti-Phospho Chk2 (#2197, CST, Danvers, Mass.) and anti-RPA32 (#2208, CST, Danvers, Mass.) at 4° C. overnight. The blots were then washed and probed with HRP conjugated anti-goat (#sc-2020, Santa Cruz Biotech, INC., Santa Cruz, Calif.), or HRP conjugated anti-rabbit (#A16110, Thermo Fisher Scientific, Walthan, Mass.) as appropriate. The blots were developed with Bio-Rad Western C developing reagent (#170-5060 Bio-Rad, Hercules, Calif.) and visualized with Chemidoc digital imager (#1708280, Bio-Rad, Hercules, Calif.).

patients = conditions: recent phase II trial; cited from earlier work
[2] = system: Axl and FLT3 phosphorylation in AML cells; assay: Western blot of Axl and FLT3 phosphorylation in AML cells; format: cell-based, human
Text: as §2

[3] = system: LM-P orthotopic pancreatic cancer; assay: LM-P orthotopic pancreatic cancer model; conditions: immunohistochemistry
Description: LMP cells derived from the KRAS/p53 metastatic mouse model were implanted subcutaneously into the flanks of mice and allowed to grow until they reached ˜500 mm^3 in size.
To establish orthotopic tumors, mice harboring subcutaneous tumors were sacrificed and tumors were isolated and cut into small fragments. Laparotomies were then performed and a tumor fragment was secured to the tail of the pancreas.
All procedures involving animals and their care and use were approved by the Institutional Animal Care and Usage Committee of Stanford University. For all in vivo studies, six week old, female nude (nu/nu) mice (Jackson Laboratory, Bar Harbor, Me.) were used. In all studies, animals displaying signs of morbidity were removed from the study immediately. […] Treatment was initiated four days post-inoculation for both studies. […] BGB324 (Selleckchem LLC, Houston, Tex.) and Foretinib (MedChem, Monmouth Junction, N.J.). Small molecules were administered twice daily via oral gavage. […] The orthotropic LM-P pancreatic adenocarcinoma model (a gift from Dr. Edgar Engleman at Stanford University, Stanford, Calif.) was established as previously described. Briefly, 1×10^6 cells were injected subcutaneously into the flanks of nude mice and grown for 2-3 weeks until they reached 500 mm^3. […]

skov3.ip = skov3.ip intraperitoneal ovarian cancer model; format: in vivo, mouse xenograft; conditions: MYD1-72 Fc 1 mg/kg daily, doxorubicin 2 mg/kg twice weekly, three weeks
Text: At this time, several mice were sacrificed at random to ensure engraftment of diffuse metastatic disease, a hallmark of the human condition. […] After three weeks of treatment, mice were sacrificed and tumor burden was quantified both by counting the number of visible lesions, as well as excising and weighing all diseased tissue.
as §1

mouse Gas6 = target: T1, mouse Gas6 (mouse, UniProt Q61592 115-674, limits assumed); assay: KinExA equilibrium titration in solution, apparent Kd of the dimeric Fc fusion
T1 construct: Recombinant in KinExA (detected through a 6xHIS tag); also called mGas6
T1 sequence (looked up): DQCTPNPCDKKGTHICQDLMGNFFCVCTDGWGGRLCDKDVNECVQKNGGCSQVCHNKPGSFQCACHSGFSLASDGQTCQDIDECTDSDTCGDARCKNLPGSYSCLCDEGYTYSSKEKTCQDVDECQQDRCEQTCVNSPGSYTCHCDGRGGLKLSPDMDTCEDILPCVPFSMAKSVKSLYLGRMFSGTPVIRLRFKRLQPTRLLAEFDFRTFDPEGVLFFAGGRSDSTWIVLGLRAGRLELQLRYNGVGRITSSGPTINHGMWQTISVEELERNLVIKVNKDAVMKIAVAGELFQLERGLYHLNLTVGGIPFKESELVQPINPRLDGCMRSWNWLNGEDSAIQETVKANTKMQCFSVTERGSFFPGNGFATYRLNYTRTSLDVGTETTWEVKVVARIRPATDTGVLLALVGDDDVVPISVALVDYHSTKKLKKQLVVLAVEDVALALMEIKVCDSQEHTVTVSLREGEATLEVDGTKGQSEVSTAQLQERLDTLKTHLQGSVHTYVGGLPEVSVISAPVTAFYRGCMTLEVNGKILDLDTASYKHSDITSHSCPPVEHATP

Which results are given for COc1cc2c(Oc3ccc(NC(=O)C4(C(=O)Nc5ccc(F)cc5)CC4)cc3F)ccnc2cc1OCCCN1CCOCC1 [Foretinib]?
reduction in lung metastases compared to vehicle treated mice (4T1 luciferase cells): 55%; size of primary tumors (4T1 luciferase cells): significantly reduced the size of primary tumors; pAxl and pAkt levels [1]: indiscriminately inhibited all TAM receptors; pMer and pTyro3 levels [1]: indiscriminately inhibited all TAM receptors; clinical efficacy (patients): failed to demonstrate efficacy; patients with treatment-related adverse events (patients): 91%

With “wildtype Axl Fc: wild-type Axl decoy receptor as Fc fusion” as the molecule, how does the “Axl and FLT3 phosphorylation” value [2] read?
Its value is “inhibited Axl and FLT3 phosphorylation”.

With Nc1ccn([C@@H]2O[C@H](CO)[C@@H](O)C2(F)F)c(=O)n1 [Gemcitabine, reference compound] as the molecule, how does the “Ki67 proliferation in primary tumor” value [3] read?
The value was “small, albeit significant decrease in proliferation”.

With Nc1nc(Nc2ccc3c(c2)CC[C@@H](N2CCCC2)CC3)nn1-c1cc2c(nn1)-c1ccccc1CCC2 [BGB324, reference compound] as the molecule, how does the “reduction in lung metastases compared to vehicle treated mice” value (4T1 luciferase cells) read?
Its value is 10%.

And the “size of primary tumors” value (4T1 luciferase cells)?
Its value is “showed little effects”.

What about the “pAxl and pAkt levels” value [1] of the same molecule?
The value was “short-term inhibition of pAxl but increased pAxl levels at later time points”.

With COc1cccc2c1C(=O)c1c(O)c3c(c(O)c1C2=O)C[C@@](O)(C(=O)CO)C[C@@H]3O[C@H]1C[C@H](N)[C@H](O)[C@H](C)O1 [doxorubicin, reference compound] as the molecule, how does the “decrease in tumor burden (by weight) vs controls” value (skov3.ip) read?
Its value is 91%.

B1: MYD1-Fc (Fc fusion)
chain: APRGTQAEESPFVSNPGNITGARGLTGTLRCQLQVQGEPPEVHWLRDGQILELADSTQTQVPLGEDEQGDWIVASQLRITSLQLSDTGQYQCLVFLGHQTFVSQPGYVRLEGLPYFLEEPEDRTVAANTPFNLSCQAQGPPEPVDLLWLQDAVPLATAPGHGPQRSLHVPGLNKTSSFSCEAHNAKGVTTSRTATITVLPQQPRNLHLVSRQPTELEVAWTPGLSGIYPLTHCTLQAVLSNDGMGIQAGEPDPPEEPLTSQASVPPHQLRLGSLHPHTPYHIRVACTSSQGPSSWTHWLPVETPEGVPLGPPENISATRNGSQAFVHWQEPRAPLQGTLLGYRLAYQGQDTPEVLMDIGLRQEVTLELQGDGSVSNLTVCVAAYTAAGDGPWSLPVPLEAWRPGQAQPVHQLVKEPSTPAFS
notes: Dimeric Fc fusion made in HEK293; MYD1 mutations deduced as MYD1-72 minus A72V; not shown: Fc domain
For B1, which Kd (mouse Gas6) is on record?
The Kd was 1.1 pM.

B2: MYD1-72 Fc (Fc fusion)
chain: B1 chain with A54V
notes: Dimeric Fc fusion made in HEK293; also called MYD-72 Fc; second generation Axl decoy receptor; not shown: Fc domain
For B2, which Kd (mouse Gas6) is on record?
The Kd was 0.14 pM.
